Experimental data from US20260071220A1, “CONJUGATE OF NUCLEOTIDE ANALOG-CONTAINING DOUBLE-STRANDED RNAI ANALOG” (BaseCure Therapeutics LLC, priority 2022, published 2026).
In the oligonucleotide strings, read from the 5' end, every base follows the letter of its sugar. An asterisk marks phosphorothioate; unmarked linkages are phosphodiester. Other units and linkages are bracketed, terminal groups are in braces. A string of capitals states the bases alone. {D01} = GalNAc ligand D01, attached to sense strand by a phosphodiester bond; m = 2'-O-methyl; f = 2'-fluoro

Experiments:
hTLR7 = biological target: T1, hTLR7 (Homo sapiens, UniProt Q9NYK1); test: Agonistic activity on hTLR7 cells (HEK BLUE, QUANTI-Blue OD650); type: cell-based; conditions: 24 h, transfection with RNAiMAX, maximum concentration 200 nM
T1 construct: host or cells: HEK BLUE hTLR7 (HEK293-derived SEAP reporter line)
T1 sequence (Q9NYK1 27-1049): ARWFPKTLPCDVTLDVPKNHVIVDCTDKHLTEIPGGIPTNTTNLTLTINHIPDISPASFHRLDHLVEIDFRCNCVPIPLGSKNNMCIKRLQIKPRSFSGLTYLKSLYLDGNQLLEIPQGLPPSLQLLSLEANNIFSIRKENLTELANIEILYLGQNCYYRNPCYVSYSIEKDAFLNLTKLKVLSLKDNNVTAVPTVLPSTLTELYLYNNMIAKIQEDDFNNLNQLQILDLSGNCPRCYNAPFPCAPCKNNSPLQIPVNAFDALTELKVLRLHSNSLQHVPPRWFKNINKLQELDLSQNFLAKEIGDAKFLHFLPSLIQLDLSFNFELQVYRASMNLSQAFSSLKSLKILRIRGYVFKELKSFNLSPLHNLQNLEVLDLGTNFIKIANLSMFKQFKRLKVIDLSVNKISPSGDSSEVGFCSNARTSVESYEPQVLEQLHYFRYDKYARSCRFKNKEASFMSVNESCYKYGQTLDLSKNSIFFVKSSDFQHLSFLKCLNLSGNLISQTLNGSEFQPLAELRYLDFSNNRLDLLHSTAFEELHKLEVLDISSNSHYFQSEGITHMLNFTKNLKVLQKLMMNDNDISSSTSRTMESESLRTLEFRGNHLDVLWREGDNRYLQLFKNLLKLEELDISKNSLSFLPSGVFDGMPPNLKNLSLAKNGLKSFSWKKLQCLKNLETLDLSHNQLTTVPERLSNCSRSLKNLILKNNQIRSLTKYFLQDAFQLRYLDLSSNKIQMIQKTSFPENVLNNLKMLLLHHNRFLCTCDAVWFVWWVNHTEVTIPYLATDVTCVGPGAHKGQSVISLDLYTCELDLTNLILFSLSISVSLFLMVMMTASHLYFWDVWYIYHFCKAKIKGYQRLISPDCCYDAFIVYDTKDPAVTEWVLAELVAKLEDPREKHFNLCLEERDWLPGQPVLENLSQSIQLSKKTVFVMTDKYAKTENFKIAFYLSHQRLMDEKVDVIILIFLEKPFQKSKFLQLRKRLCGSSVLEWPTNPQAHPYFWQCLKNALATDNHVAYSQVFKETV
Procedure: (§1) 1) The conjugate of the present invention was diluted to a concentration that was 20 times a final concentration, the diluted conjugate was mixed with RNAiMAX-OPTI MEM (RNAiMAX:OPTI MEM=3:47) at a ratio of 1:1 and incubated for 15 min at room temperature.
(§2) 2) 10 μL of incubated conjugate of the present invention was added into a corresponding cell plate, with 10 concentrations in total, a maximum concentration being 200 nM, and double duplicated wells for each concentration.
(§3) 10 μL of 0.5 μM BLOCK-iT™ Alexa Fluor® Red Fluorescent Control was added into 2 transfection positive control wells.
(§4) 4) 90 μL of cells were seeded into a 96-well plate with the conjugate at the density of 50,000 cells/well. […]
(§5) 7) Compound activity detection: 20 μL of cell supernatant was taken from each well and added into an experimental plate containing 180 μL of QUANTI-Blue™ reagent and then incubated for 1 h at 37° C., followed by detecting an absorbance values at 650 nm (OD650) using the multifunctional microplate reader Flexstation III.
(§6) Compound activity: the OD650 values were analyzed using GraphPad Prism software, and a dose effect curve of the compound was fit, and the EC50 value of the compound was calculated. […] The cell activity % value was analyzed using GraphPadPrism software, the dose effect curve of the compound was fit, and the CC50 value of the compound on cell was calculated.

hTLR8 = biological target: T2, hTLR8 (Homo sapiens, UniProt Q9NR97); test: Agonistic activity on hTLR8 cells (HEK BLUE, QUANTI-Blue OD650); type: cell-based; conditions: 24 h, transfection with RNAiMAX, maximum concentration 200 nM
T2 construct: host or cells: HEK BLUE hTLR8 (HEK293-derived SEAP reporter line)
T2 sequence (Q9NR97 27-1041): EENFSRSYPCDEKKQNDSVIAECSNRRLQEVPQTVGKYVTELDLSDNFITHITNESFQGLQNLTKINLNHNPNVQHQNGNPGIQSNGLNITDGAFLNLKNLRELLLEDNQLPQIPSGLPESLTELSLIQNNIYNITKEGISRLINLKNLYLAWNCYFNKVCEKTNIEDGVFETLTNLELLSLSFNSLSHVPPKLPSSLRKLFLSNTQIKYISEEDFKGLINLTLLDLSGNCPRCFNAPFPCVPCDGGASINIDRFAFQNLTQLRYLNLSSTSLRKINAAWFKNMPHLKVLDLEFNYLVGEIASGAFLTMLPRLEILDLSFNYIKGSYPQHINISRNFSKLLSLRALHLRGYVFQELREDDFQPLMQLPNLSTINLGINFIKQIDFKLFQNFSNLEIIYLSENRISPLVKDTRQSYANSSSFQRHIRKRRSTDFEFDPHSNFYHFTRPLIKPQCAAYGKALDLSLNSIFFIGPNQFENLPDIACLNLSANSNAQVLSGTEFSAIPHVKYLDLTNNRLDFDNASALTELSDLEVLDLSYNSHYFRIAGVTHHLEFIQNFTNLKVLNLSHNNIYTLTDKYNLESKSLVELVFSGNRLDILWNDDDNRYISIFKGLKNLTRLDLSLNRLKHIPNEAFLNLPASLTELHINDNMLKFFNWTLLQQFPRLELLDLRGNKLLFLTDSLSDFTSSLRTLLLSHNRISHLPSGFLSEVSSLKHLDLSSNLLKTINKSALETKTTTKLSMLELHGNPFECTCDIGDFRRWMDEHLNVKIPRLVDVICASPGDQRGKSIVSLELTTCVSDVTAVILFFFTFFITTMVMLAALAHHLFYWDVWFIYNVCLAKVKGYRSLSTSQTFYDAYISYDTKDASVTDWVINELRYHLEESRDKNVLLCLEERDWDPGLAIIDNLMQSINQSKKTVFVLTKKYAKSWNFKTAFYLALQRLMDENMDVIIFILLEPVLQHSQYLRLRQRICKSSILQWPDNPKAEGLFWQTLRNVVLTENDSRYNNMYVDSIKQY
Procedure: as §1, §2, §3, §4, §5, §6

HEK BLUE hTLR7 = test: Cell activity detection (CellTiter-Glo) in hTLR7 cells; type: cell-based, human; conditions: 24 h, maximum concentration 200 nM, read-out: CC50
Procedure: as §1, §2
4) 90 μL of cells were seeded into a 96-well plate with the conjugate at the density of 50,000 cells/well.
5) The conjugate of the present invention and the cells were co-incubated for 24 h in an incubator under the conditions of 37° C. and 5% CO2.
8) Cell activity detection: the operation was carried out according to the method in the Celltiter-Glo specification, and a chemiluminescence signals (RLU) were detected using the multifunctional microplate reader Flexstation III.
Compound activity: the OD650 values were analyzed using GraphPad Prism software, and a dose effect curve of the compound was fit, and the EC50 value of the compound was calculated. Cell activity detection: the calculation formula of cell activity % was as follows. The cell activity % value was analyzed using GraphPadPrism software, the dose effect curve of the compound was fit, and the CC50 value of the compound on cell was calculated.

Conjugate 2: Double-stranded RNAi analog against AGT, D01 GalNAc ligand on sense strand; sense SEQ ID NO: 6, antisense SEQ ID NO: 2 containing Z (sense mA*mU*fCfCmAfCfAfAmUmGmAmGmAfGmUmAmCmA-{D01}; antisense CUCACAUGUACNCUCAUUGUGGAUGACGA; antisense: chemistry not given here; antisense strand modified, includes nucleotide analog Z, further chemistry not fully specified)
> 200 nM: EC50 (hTLR7) | EC50 (hTLR8) | CC50 (HEK BLUE hTLR7)

Conjugate 3: Double-stranded RNAi analog against AGT, D01 GalNAc ligand on sense strand; sense SEQ ID NO: 7, antisense SEQ ID NO: 2 containing Z (sense mA*mU*fCfCmAfCfAfAmUmGmAfGmAmGmUmAmCmA-{D01}; antisense CUCACAUGUACNCUCAUUGUGGAUGACGA; antisense: chemistry not given here; antisense strand modified, includes nucleotide analog Z, further chemistry not fully specified)
> 200 nM: EC50 (hTLR7) | EC50 (hTLR8) | CC50 (HEK BLUE hTLR7)
